Results taken from article PMC4741607 (Oncotarget, 2015).
Where two headings read alike, the source gives them in different places. Each block holds one compound with its values, some of them ahead of it.

How the values were obtained:
[1] = test system: H1975 cells; details: DMSO = 100
Procedure: (§2) Cells were grown in 96-well culture plates (2500–3000/well). For adherent cell lines, compounds of various concentrations were added into the plates after cells were cultured for 12 hours. Cell proliferation was determined after treatment with compounds for 72 hours. Cell viability was measured using the CellTiter–Glo assay (Promega, USA), according to the manufacturer's instructions, and luminescence was measured in a multi-label reader (Envision, PerkinElmer, USA). Data were normalized to control groups (DMSO) and represented by the mean of three independent measurements with standard error <20%. GI50 values were calculated using Prism 5.0 (GraphPad Software, San Diego, CA).

[2] = test system: H1975 cells; experiment: cells; details: Homo sapiens, NCI-H1975, read-out: Relative activity (%)
Procedure: as §2

[3] = test system: H1975 (EGFR L858R/T790M); experiment: Proliferation (CellTiter-Glo), H1975; type: cell-based, human; details: H1975, EGFR L858R/T790M, 72 hours, read-out: GI50
Procedure: (§3) The human cancer cell lines A549, A431, H3255, H1975, PC-9, HCC827, H23, H460, A549, H358 and H2122 cells were purchased from the American Type Culture Collection (ATCC) (Manassas, VA, USA). […] A549 and A431 were cultured in DMEM media (Corning, USA) with 10% FBS and supplemented with 2% L-glutamine and 1% pen/strep. H3255 was cultured in BEGM media (LONZA, USA) with 10% FBS and supplemented with 2% L-glutamine and 1% pen/strep.
as §2

[4] = test system: A549 (EGFR wt); experiment: Proliferation (CellTiter-Glo), A549; type: cell-based, human; details: A549, EGFR wt, 72 hours; read-out: GI50
Procedure: as §3, §2

[5] = test system: H358 (EGFR wt); experiment: Proliferation (CellTiter-Glo), H358; type: cell-based, human; details: H358, EGFR wt, 72 hours; read-out: GI50
Procedure: as §3, §2

[6] = test system: A431 (EGFR wt); experiment: Proliferation (CellTiter-Glo), A431; type: cell-based, human; details: A431, EGFR wt, 72 hours; read-out: GI50
Procedure: as §3, §2

[7] = test system: H2122 (EGFR wt); experiment: Proliferation (CellTiter-Glo), H2122; type: cell-based, human; details: H2122, EGFR wt, 72 hours; read-out: GI50
Procedure: as §3, §2

[8] = test system: PC-9 (EGFR Del19); experiment: Proliferation (CellTiter-Glo), PC-9; type: cell-based, human; details: PC-9, EGFR Del19, 72 hours; read-out: GI50
Procedure: as §3, §2

[9] = test system: H3255 (EGFR L858R); experiment: Proliferation (CellTiter-Glo), H3255; type: cell-based, human; details: H3255, EGFR L858R, 72 hours; read-out: GI50
Procedure: as §3, §2

[10] = test system: H23 (EGFR wt); experiment: Proliferation (CellTiter-Glo), H23; type: cell-based, human; details: H23, EGFR wt, 72 hours; read-out: GI50
Procedure: as §3, §2

[11] = test system: H460 (EGFR wt); experiment: Proliferation (CellTiter-Glo), H460; type: cell-based, human; details: H460, EGFR wt, 72 hours; read-out: GI50
Procedure: as §3, §2

[12] = test system: HCC827 (EGFR Del19); experiment: Proliferation (CellTiter-Glo), HCC827; type: cell-based, human; details: HCC827, EGFR Del19, 72 hours; read-out: GI50
Procedure: as §3, §2

[13] = test system: PC-9 xenograft; experiment: PC-9 xenograft mouse model; type: in vivo, Nude (Nu/Nu) mice; details: PC-9 xenograft, 25 mg/kg/day QD oral gavage
Procedure: (§1) Tumor diameter was measured 3 times weekly. Tumor volumes (V) were calculated by the equation (V = length × width × width/2). ALL experiments and procedures followed the guidelines of the Institutional Animal Care and Use Committees of National Institue of Biological Sciences, Beijing.

[14] = test system: H1975 xenograft; experiment: H1975 xenograft mouse model; type: in vivo, Nude (Nu/Nu) mice; details: 25 mg/kg/day QD oral gavage
Procedure: as §1

GI50 ([3]; Homo sapiens, NCI-H1975): ~1.1 µM
SMILES: CC(=O)Nc1cccc(-n2c(=O)n(C3CC3)c(=O)c3c(Nc4ccc(I)cc4F)n(C)c(=O)c(C)c32)c1 [Trametinib]
H1975 cell lines growth ([1]; single agent 0.014 μM): 77.33
H1975 cell lines growth ([1]; single agent 0.04 μM): 79.50
H1975 cell lines growth ([1]; single agent 0.37 μM): 80.79
H1975 cell lines growth ([1]; single agent 1.1 μM): 77.20
H1975 cell lines growth ([1]; single agent 10 μM): 20.59
activity at 1.1 µM [2]: 52.2%

SMILES: CCC(=O)N1CCC[C@@H](n2nc(-c3ccc(Oc4ccccc4)cc3)c3c(N)ncnc32)C1 [PCI-R]
GI50 [4]: > 10 µM
GI50 [5]: > 10 µM
GI50 [6]: > 10 µM
GI50 [7]: > 10 µM
GI50 [8]: > 10 µM
GI50 [3]: > 10 µM
GI50 [9]: > 10 µM
GI50 [10]: > 10 µM
GI50 [11]: > 10 µM
GI50 [12]: > 10 µM

SMILES: COc1cc2ncnc(Nc3ccc(F)c(Cl)c3)c2cc1OCCCN1CCOCC1 [Gefitinib]
anti-tumor activity (tumor growth) [13]: almost completely suppressed the tumor growth
anti-tumor activity (tumor growth) [14]: completely lost the anti-tumor efficacy
